{"source": "patent US6737383B1", "about": "“Herbicidal oxadiazolidines” (priority 1999, dated 2004)", "key": {"cocklebur": {"tested_on": "cocklebur", "assay": "Test B pre/postemergence cocklebur", "format": "in vivo, Xanthium strumarium", "procedure,_shortened": "(§1)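 Test chemicals in a non-phytotoxic solvent mixture with surfactant were sprayed preemergence onto planted seeds and postemergence onto plants 2 to 18 cm tall (1- to 4-leaf stage). After twelve to sixteen days in a greenhouse, injury was visually rated against untreated controls from 0 (no effect) to 10 (complete control).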"}, "sugar beet": {"tested_on": "sugar beet", "assay": "Test B pre/postemergence sugar beet", "format": "in vivo, Beta vulgaris", "settings": "for Sugarbeets plant response rating (0 to 10 scale): 0 is no effect", "procedure,_shortened": "as §1"}, "rape": {"tested_on": "rape", "assay": "Test B pre/postemergence rape", "format": "in vivo, Brassica napus", "procedure,_shortened": "as §1"}, "common pursiane": {"tested_on": "common pursiane", "assay": "Test D common purslane", "format": "in vivo, Portulaca oleracea", "settings": "Rate 64 g/ha, Preemergence; 0 to 100 scale, 0 no injury, 100 complete control", "description": "Seeds, tubers, or plant parts of Alexandergrass (Brachiaria plantaginea), bermuda-grass (Cynodon dactylon), common pursiane (Portulaca oleracea), common ragweed (Ambrosia elatior), common groundsel (Senecio vulgaris), dallisgrass (Paspalum dilatatum), goosegrass (Eleusine indica), guineagrass (Panicum maximum), itchgrass (Rottboellia exaltata), Johnson grass (Sorghum halepense), large crabgrass (Digitaria sanguinalis), pitted morningglory (Ipomoea lacunosa), purple nutsedge (Cyperus rotundus), sandbur (Cenchrus echinatus), sourgrass (Trichachne insularis), Spanishneedles (Bidens bipinnata), surinam grass (Brachiaria decumbens) and tall mallow (Malva sylvestris) were planted into greenhouse pots of flats containing greenhouse planting medium. Plant species were grown in separate pots or individual compartments. Preemergence applications were made within one day of planting the seed or plant part.\nTest chemicals were formulated in a non-phytotoxic solvent mixture which included a surfactant and applied preemergence to the surface of the pot containing seeds in a sandy loam soil. Untreated control pots and treated pots were placed in the greenhouse for growth and visually evaluated for injury 14 to 21 days after herbicide application. Plant response ratings, summarized in Table C, are based on a 0 to 100 scale where 0 is no injury and 100 is complete control. A dash (−) response means no test result."}, "winter wheat [1]": {"tested_on": "winter wheat", "assay": "Test E winter wheat", "format": "in vivo, Triticum aestivum", "settings": "Preemergence"}, "bamyardgrass": {"tested_on": "bamyardgrass", "assay": "Test B flood test barnyardgrass", "format": "in vivo, Echinochloa crus-galli", "procedure,_shortened": "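Flood test on plants grown to the 2-leaf stage; treated plants kept in greenhouse twelve to sixteen days, then visually rated against controls on a 0 (no effect) to 10 (complete control) scale.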"}, "winter barley": {"tested_on": "winter barley", "assay": "Test E winter barley", "format": "in vivo, Hordeum vulgare", "settings": "Preemergence"}, "green foxtail": {"tested_on": "green foxtail", "assay": "Test E green foxtail", "format": "in vivo, Setaria viridis", "settings": "Preemergence"}, "blackgrass": {"tested_on": "blackgrass", "assay": "Test E blackgrass", "format": "in vivo, Alopecurus myosuroides", "settings": "Preemergence"}, "Italian ryegrass": {"tested_on": "Italian ryegrass", "assay": "Test E Italian ryegrass", "format": "in vivo, Lolium multiflorum", "settings": "Preemergence"}, "wild oat": {"tested_on": "wild oat", "assay": "Test E wild oat", "format": "in vivo, Avena fatua", "settings": "Preemergence; Rate 500 g/ha; 0 to 100 scale where 0 is no effect and 100 is complete control"}, "winter wheat [2]": {"tested_on": "winter wheat", "assay": "Test E winter wheat", "format": "in vivo, Triticum aestivum", "settings": "Postemergence", "procedure,_shortened": "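Each compound, carried in a non-phytotoxic solvent blend including surfactant, was applied (postemergence: over the top of young plants at 1- to 4-leaf stage). Plants stayed in the greenhouse about 21 to 28 days before visual comparison with untreated controls.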"}, "[3]": {"settings": "Postemergence, Rate 125 g/ha, scale of 0 to 10 where 0 is no effect and 10 is complete control"}, "[4]": {"settings": "Preemergence, Rate 62 g/ha, scale 0 to 10 (0 no effect, 10 complete control)"}, "[5]": {"settings": "Preemergence, Rate 125 g/ha, 0 is no effect, 10 is complete control"}, "[6]": {"settings": "Preemergence, Rate 250 g/ha, scale 0 to 10, 0 is no effect, 10 is complete control"}, "[7]": {"settings": "Preemergence, Rate 500 g/ha, scale 0 to 10 (0 no effect, 10 complete control)"}, "[8]": {"settings": "Rate 62 g/ha, Postemergence, scale of 0 to 10 where 0 is no effect and 10 is complete control"}, "[9]": {"settings": "Rate 250 g/ha, Postemergence, scale 0 to 10, 0 is no effect, 10 is complete control"}, "[10]": {"settings": "Rate 500 g/ha, Postemergence, scale 0 to 10"}, "[11]": {"settings": "Preemergence, Rate 125 g/ha, 10 is complete control"}, "[12]": {"settings": "Rate 500 g/ha, 0 to 100 scale where 0 is no effect and 100 is complete control"}, "[13]": {"settings": "Postemergence, Rate 250 g/ha, scale 0 to 10, 0 no effect, 10 complete control"}, "[14]": {"settings": "Preemergence, Rate 125 g/ha, scale 0 to 10 (0 no effect, 10 complete control)"}, "[15]": {"settings": "Preemergence, Rate 250 g/ha, scale of 0 to 10 where 0 is no effect and 10 is complete control"}, "[16]": {"settings": "Rate 500 g/ha, Postemergence, scale 0 to 10, 0 no effect, 10 complete control"}}}
{"smiles": "CCCn1c(=O)on(C(=O)N(c2ccc(F)cc2F)C(C)C)c1=O", "note": "[Compound 130]", "values": [{"measurement": "Cocklebur plant response rating", "setting": "cocklebur; [3]", "value": 0}, {"measurement": "Cocklebur plant response rating", "setting": "cocklebur; [4]", "value": 0}, {"measurement": "Cocklebur plant response rating (0 to 10 scale)", "setting": "cocklebur; [5]", "value": 0}, {"measurement": "Cocklebur plant response rating", "setting": "cocklebur; [6]", "value": 0}, {"measurement": "Cocklebur plant response rating", "setting": "cocklebur; [7]", "value": 0}, {"measurement": "Cocklebur plant response rating", "setting": "cocklebur; [8]", "value": 0}, {"measurement": "Plant response rating, Cocklebur", "setting": "cocklebur; [9]", "value": 0}, {"measurement": "Cocklebur plant response rating", "setting": "cocklebur; [10]", "value": 3}, {"measurement": "Sugarbeets plant response rating", "setting": "sugar beet; [3]", "value": 0}, {"measurement": "Sugarbeets plant response rating", "setting": "sugar beet; [4]", "value": 7}, {"measurement": "Sugarbeets plant response rating (0 to 10 scale)", "setting": "sugar beet; [11]", "value": 9}, {"measurement": "Sugarbeets plant response rating", "setting": "sugar beet; [6]", "value": 10}, {"measurement": "Sugarbeets plant response rating", "setting": "sugar beet; [7]", "value": 10}, {"measurement": "Sugarbeets plant response rating", "setting": "sugar beet; [8]", "value": 0}, {"measurement": "Plant response rating, Sugarbeets", "setting": "sugar beet; [9]", "value": 2}, {"measurement": "Sugarbeets plant response rating", "setting": "sugar beet; [10]", "value": 4}, {"measurement": "Rape plant response rating", "setting": "rape; [3]", "value": 2}, {"measurement": "Rape plant response rating", "setting": "rape; [4]", "value": 4}, {"measurement": "Rape plant response rating (0 to 10 scale)", "setting": "rape; [5]", "value": 9}, {"measurement": "Rape plant response rating", "setting": "rape; [6]", "value": 10}, {"measurement": "Rape plant response rating", "setting": "rape; [7]", "value": 10}, {"measurement": "Rape plant response rating", "setting": "rape; [8]", "value": 0}, {"measurement": "Rape plant response rating", "setting": "rape; [10]", "value": 2}, {"measurement": "Plant response rating, C. purslane", "setting": "common pursiane", "value": 0}]}
{"smiles": "CC(C)N(C(=O)n1oc(=O)n(C(C)(C)C)c1=O)c1ccc(Cl)cc1", "note": "[Compound 118]", "values": [{"measurement": "Plant response rating, Wheat (winter)", "setting": "winter wheat [1]; Rate 250 g/ha, 0 to 100 scale", "value": 50}, {"measurement": "Plant response rating, Wheat (winter)", "setting": "winter wheat [1]; [12]", "value": 70}, {"measurement": "Barnyardgrass plant response rating", "setting": "bamyardgrass; Rate 250 g/ha, headed Pre-emergence (flood test species), scale 0 to 10 (0 no effect, 10 complete control)", "value": 0}, {"measurement": "Plant response rating, Barnyardgrass", "setting": "bamyardgrass; Rate 500 g/ha, headed Pre-emergence (flood test species), scale 0 to 10 (0 no effect, 10 complete control)", "value": 1}, {"measurement": "Barnyardgrass plant response rating", "setting": "bamyardgrass; Rate 1000 g/ha, Pre-emergence (as headed), scale 0 to 10", "value": 3}, {"measurement": "Barnyardgrass plant response rating", "setting": "bamyardgrass; Rate 2000 g/ha, Pre-emergence (as headed), scale 0 to 10, 0 no effect, 10 complete control", "value": 6}, {"measurement": "Cocklebur plant response rating", "setting": "cocklebur; [3]", "value": 0}, {"measurement": "Cocklebur plant response rating", "setting": "cocklebur; [13]", "value": 0}, {"measurement": "Cocklebur plant response rating", "setting": "cocklebur; [4]", "value": 0}, {"measurement": "Plant response rating, Cocklebur", "setting": "cocklebur; [14]", "value": 0}, {"measurement": "Plant response rating, Cocklebur", "setting": "cocklebur; [15]", "value": 0}, {"measurement": "Cocklebur plant response rating", "setting": "cocklebur; [7]", "value": 0}, {"measurement": "Cocklebur plant response rating", "setting": "cocklebur; [8]", "value": 0}, {"measurement": "Cocklebur plant response rating", "setting": "cocklebur; [16]", "value": 0}, {"measurement": "Plant response rating, Barley (winter)", "setting": "winter barley; Rate 250 g/ha, 0 to 100 scale", "value": 65}, {"measurement": "Plant response rating, Barley (winter)", "setting": "winter barley; [12]", "value": 50}, {"measurement": "Plant response rating, Green foxtail", "setting": "green foxtail; Rate 250 g/ha, 0 to 100 scale", "value": 55}, {"measurement": "Plant response rating, Green foxtail", "setting": "green foxtail; [12]", "value": 65}, {"measurement": "Sugarbeets plant response rating", "setting": "sugar beet; [3]", "value": 0}, {"measurement": "Sugarbeets plant response rating", "setting": "sugar beet; [4]", "value": 0}, {"measurement": "Sugarbeets plant response rating (0 to 10 scale)", "setting": "sugar beet; [11]", "value": 0}, {"measurement": "Plant response rating, Sugarbeets", "setting": "sugar beet; [15]", "value": 0}, {"measurement": "Sugarbeets plant response rating", "setting": "sugar beet; [7]", "value": 0}, {"measurement": "Sugarbeets plant response rating", "setting": "sugar beet; [8]", "value": 0}, {"measurement": "Plant response rating, Sugarbeets", "setting": "sugar beet; [9]", "value": 0}, {"measurement": "Sugarbeets plant response rating", "setting": "sugar beet; [16]", "value": 2}, {"measurement": "Plant response rating, Blackgrass", "setting": "blackgrass; Rate 250 g/ha, 0 to 100 scale", "value": 80}, {"measurement": "Plant response rating, Blackgrass", "setting": "blackgrass; [12]", "value": 100}, {"measurement": "Plant response rating, I. Ryegrass", "setting": "Italian ryegrass; Rate 250 g/ha, 0 to 100 scale", "value": 60}, {"measurement": "Plant response rating, I. Ryegrass", "setting": "Italian ryegrass; [12]", "value": 60}, {"measurement": "Plant response rating, Wild oat", "setting": "wild oat", "value": 70}, {"measurement": "Rape plant response rating", "setting": "rape; [3]", "value": 0}, {"measurement": "Rape plant response rating", "setting": "rape; [13]", "value": 0}, {"measurement": "Rape plant response rating", "setting": "rape; [4]", "value": 0}, {"measurement": "Plant response rating, Rape", "setting": "rape; [14]", "value": 0}, {"measurement": "Plant response rating, Rape", "setting": "rape; [15]", "value": 0}, {"measurement": "Rape plant response rating", "setting": "rape; [7]", "value": 0}, {"measurement": "Rape plant response rating", "setting": "rape; [8]", "value": 0}, {"measurement": "Rape plant response rating", "setting": "rape; [16]", "value": 0}, {"measurement": "Plant response rating, Wheat (winter)", "setting": "winter wheat [2]; Rate 250 g/ha, 0 to 100 scale (0 no effect, 100 complete control)", "value": 65}, {"measurement": "Plant response rating, Wheat (winter)", "setting": "winter wheat [2]; Rate 500 g/ha, 0 to 100 scale, 0 no effect, 100 complete control", "value": 70}]}
